In one test the test system is Molm-14 cells (FLT3-ITD). In words: AML cell line growth inhibition (CellTiter-Blue), 50 nM. It counts as cell-based. To be noted: Homo sapiens, 50 nM inhibitor conc., means of triplicates, read-out: Percent Inhibition (%) Molm-14 growth. The protocol:
(§1) With the amide kinase inhibitor library established, kinase inhibition and AML cell line (Molm-14, which harbors FLT3-ITD) growth inhibition were analyzed (Table 1). More specifically, Haspin and FLT3 inhibition were evaluated in-house via ADP Glo Kinase Assay (Promega, Madison, WI). […] Values reported are means of triplicates.
More specifically, cells were cultured to confluence in RPMI medium supplemented with 10% fetal bovine serum and 1× Penicillin-Streptomycin (Gibco™). Cells were plated at 5,000 cells/well in 96 well plates. After 24-hour incubation at 37° C. in a 5% CO2 incubator, compounds diluted in the same media were added to the indicated final concentration and allowed to incubate at 37° C. in a 5% CO2 incubator for 72 hours. Viability was determined using CellTiter-Blue® Cell Viability Assay (Promega, Madison, WI) with absorbance readings at 570 nm performed on a Cytation™ 5 Cell Imaging Multi-Mode Reader (BioTek) 3 hours after addition. Appropriate vehicle and cell-free controls were included. GI50 readings were confirmed by two scientists on two separate days.
(In general: Resazurin is reduced to fluorescent resorufin, in cell work by metabolically active cells.)

The next test addresses T1, FLT3 (Homo sapiens, UniProt P36888).
T1 sequence (P36888 27-993): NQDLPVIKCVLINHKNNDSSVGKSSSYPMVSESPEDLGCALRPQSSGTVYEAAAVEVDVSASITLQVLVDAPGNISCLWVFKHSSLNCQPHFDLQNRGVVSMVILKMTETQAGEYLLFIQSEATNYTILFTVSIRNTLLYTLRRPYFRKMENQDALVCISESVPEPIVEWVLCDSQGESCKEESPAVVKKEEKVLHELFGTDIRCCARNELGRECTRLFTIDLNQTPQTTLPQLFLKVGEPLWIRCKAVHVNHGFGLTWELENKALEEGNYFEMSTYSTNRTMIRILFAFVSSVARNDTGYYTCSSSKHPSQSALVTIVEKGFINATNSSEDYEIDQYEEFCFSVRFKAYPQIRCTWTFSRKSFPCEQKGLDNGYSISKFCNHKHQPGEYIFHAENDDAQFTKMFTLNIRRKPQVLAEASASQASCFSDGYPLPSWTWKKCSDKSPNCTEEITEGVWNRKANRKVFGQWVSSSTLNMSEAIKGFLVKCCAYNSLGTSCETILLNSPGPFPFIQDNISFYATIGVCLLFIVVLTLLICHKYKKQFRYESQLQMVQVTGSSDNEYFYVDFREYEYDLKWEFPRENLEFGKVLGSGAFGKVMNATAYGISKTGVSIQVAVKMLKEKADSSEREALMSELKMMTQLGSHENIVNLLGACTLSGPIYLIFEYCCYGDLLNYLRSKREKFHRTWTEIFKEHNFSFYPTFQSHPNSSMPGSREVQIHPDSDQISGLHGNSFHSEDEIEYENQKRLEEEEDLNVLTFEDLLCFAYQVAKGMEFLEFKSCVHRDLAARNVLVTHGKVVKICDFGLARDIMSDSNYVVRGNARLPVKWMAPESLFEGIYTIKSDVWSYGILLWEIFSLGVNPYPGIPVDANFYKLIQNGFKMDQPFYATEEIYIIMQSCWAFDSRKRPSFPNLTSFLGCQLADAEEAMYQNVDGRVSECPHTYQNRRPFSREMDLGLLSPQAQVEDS
As to the kind of experiment: ADP Glo Kinase Assay, FLT3, 50 nM inhibitor. To be noted: 50 nM inhibitor conc.; means of triplicates; read-out: Percent Inhibition (%) FLT3. It counts as biochemical. The protocol: as §1
(§2) Briefly, the ADP-Glo Kinase Assay Kit was used to determine inhibition of haspin. Kinase Buffer (SignalChem Cat #K01-09; 25 mM MOPS, pH 7.2, 12.5 mM β-glycerol-phosphate, 25 mM MgCl2, 2 mM EDTA) was supplemented with dithiothreitol (DTT) (0.2 mM) and bovine serum albumin (BSA) (40 μg/mL) immediately prior to use. Reaction volumes of 5 μL containing 9 ng/μL kinase, 10 μM ATP, 50 nM inhibitor, and the appropriate peptide substrate (20 μM) were incubated for 3 hours, and then quenched with an equal volume (5 μL) of GLO reagent. After 40 minutes, 10 μL DET reagent was added and incubated for 1 hour before visualization on a Cytation™ 5 Cell Imaging Multi-Mode Reader (BioTek).

The target in a further test is T2, haspin (Homo sapiens, UniProt Q8TF76).
T2 sequence (Q8TF76 1-798): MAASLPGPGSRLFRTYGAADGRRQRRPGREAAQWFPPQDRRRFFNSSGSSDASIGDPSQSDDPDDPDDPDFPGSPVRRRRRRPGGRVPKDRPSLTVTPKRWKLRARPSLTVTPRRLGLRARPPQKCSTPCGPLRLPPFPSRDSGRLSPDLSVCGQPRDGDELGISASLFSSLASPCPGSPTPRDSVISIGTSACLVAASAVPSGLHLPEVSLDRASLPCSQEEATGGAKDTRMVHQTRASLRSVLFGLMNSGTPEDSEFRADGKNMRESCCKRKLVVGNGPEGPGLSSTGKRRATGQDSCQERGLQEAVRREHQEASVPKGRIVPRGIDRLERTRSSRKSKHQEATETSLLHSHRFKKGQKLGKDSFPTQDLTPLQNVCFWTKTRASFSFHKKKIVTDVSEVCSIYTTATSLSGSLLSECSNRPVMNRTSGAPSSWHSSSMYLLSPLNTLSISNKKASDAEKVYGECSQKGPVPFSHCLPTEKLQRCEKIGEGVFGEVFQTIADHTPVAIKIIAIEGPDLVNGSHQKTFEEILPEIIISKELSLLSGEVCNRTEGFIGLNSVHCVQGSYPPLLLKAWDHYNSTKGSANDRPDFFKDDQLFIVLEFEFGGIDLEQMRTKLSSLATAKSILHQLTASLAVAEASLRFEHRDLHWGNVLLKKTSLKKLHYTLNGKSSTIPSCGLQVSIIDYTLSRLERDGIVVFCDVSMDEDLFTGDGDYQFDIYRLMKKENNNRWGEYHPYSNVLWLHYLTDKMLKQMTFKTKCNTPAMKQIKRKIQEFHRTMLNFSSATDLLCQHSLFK
In words: ADP Glo Kinase Assay, haspin, 50 nM inhibitor. The class given is biochemical. To be noted: 50 nM inhibitor conc.; means of triplicates; read-out: Percent Inhibition (%) Haspin. Here is the method: as §1, §2
Background: ADP-Glo first removes unused ATP, then detects ADP through luciferase.

A further test has as its target CDK12/CyclinK (Homo sapiens, UniProt Q9NYV4). In words: CDK12/CyclinK inhibition (IC50). The class given is biochemical.
Another test addresses CDK2 (Homo sapiens, UniProt P24941). In words: CDK2 inhibition (IC50). The class given is biochemical.

Structures are written as SMILES. pIC50: −log10 of the molar value.

Chain of CDK12/CyclinK (Q9NYV4 whole entry): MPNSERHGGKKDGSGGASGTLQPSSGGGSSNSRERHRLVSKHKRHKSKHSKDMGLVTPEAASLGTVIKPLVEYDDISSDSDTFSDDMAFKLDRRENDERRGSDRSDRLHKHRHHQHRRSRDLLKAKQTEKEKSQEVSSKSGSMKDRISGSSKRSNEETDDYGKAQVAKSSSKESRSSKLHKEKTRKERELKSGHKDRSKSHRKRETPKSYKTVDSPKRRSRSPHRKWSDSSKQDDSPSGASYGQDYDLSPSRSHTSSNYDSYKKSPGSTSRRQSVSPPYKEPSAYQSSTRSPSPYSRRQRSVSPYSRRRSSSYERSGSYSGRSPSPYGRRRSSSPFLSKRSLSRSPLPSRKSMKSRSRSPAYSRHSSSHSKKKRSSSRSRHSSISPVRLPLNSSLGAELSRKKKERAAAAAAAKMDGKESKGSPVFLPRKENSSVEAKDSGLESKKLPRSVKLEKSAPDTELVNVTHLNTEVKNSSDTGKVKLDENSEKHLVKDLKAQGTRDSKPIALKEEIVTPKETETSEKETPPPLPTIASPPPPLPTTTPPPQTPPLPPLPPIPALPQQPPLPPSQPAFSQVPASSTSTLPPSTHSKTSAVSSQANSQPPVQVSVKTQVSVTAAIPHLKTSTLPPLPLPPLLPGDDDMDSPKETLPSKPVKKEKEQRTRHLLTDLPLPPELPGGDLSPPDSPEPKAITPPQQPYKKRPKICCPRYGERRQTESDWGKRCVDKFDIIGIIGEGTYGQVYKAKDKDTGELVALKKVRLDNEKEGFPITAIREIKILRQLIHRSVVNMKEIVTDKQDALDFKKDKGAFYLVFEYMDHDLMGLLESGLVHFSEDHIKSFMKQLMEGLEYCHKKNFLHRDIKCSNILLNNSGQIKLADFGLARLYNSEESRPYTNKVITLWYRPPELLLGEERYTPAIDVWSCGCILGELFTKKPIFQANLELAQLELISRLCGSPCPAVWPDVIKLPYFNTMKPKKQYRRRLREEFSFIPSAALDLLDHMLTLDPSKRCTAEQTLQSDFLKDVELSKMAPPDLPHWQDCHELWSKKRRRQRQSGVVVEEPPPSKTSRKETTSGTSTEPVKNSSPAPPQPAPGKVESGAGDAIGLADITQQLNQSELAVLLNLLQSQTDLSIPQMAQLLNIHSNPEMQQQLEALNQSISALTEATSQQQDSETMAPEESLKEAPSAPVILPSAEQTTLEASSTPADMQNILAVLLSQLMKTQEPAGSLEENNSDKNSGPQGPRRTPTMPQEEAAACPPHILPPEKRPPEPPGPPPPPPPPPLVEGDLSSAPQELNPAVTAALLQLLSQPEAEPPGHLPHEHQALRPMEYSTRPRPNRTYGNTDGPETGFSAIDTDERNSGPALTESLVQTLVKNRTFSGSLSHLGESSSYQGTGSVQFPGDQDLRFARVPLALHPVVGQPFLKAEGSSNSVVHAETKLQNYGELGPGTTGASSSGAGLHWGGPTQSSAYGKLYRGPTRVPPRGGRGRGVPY
Chain of CDK12/CyclinK (O75909 whole entry partner): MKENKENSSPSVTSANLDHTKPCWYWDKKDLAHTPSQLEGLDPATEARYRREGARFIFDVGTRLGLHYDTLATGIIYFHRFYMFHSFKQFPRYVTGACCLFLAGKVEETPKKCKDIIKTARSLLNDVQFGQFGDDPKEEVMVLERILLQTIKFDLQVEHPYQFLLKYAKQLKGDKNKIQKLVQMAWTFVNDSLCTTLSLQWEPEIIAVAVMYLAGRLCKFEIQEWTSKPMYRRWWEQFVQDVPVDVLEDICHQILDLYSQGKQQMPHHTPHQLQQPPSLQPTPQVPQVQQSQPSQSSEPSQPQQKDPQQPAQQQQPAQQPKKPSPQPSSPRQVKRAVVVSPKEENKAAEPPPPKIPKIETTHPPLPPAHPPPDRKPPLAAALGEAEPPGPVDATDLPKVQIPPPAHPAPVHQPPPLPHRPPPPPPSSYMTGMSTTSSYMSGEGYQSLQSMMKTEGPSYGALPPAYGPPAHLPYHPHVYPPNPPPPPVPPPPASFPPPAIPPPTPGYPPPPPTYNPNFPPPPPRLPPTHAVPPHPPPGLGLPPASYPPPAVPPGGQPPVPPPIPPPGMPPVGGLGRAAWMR

For the molecule `O=C(NCc1ncn[nH]1)c1ccc(-c2nc3ccc4[nH]ncc4c3c3c2CCCC3)cc1` [Compound 8, N-((4H-1,2,4-triazol-3-yl)methyl)-4-(8,9,10,11-tetrahydro-3H-pyrazolo[4,3-a]phenanthridin-7-yl)benzamide], the inhibition at 0.05 µM with Molm-14 cells (FLT3-ITD) is 48%; on FLT3 it was 49%; at haspin, 57%.

`Cc1c[nH]c(CNC(=O)c2ccc(-c3nc4ccc5[nH]ncc5c4c4c3CCCC4)cc2)n1` [Compound 14, N-((4-methyl-1H-imidazol-2-yl)methyl)-4-(8,9,10,11-tetrahydro-3H-pyrazolo[4,3-a]phenanthridin-7-yl)benzamide]: the inhibition at 0.05 µM on FLT3 was determined as 94%; at haspin it was 97%.

As to `CN(C)CCNC(=O)c1ccc(-c2nc3ccc4[nH]ncc4c3c3c2CCCC3)cc1` [Compound HSH2177, N-(2-(dimethylamino)ethyl)-4-(8,9,10,11-tetrahydro-3H-pyrazolo[4,3-a]phenanthridin-7-yl)benzamide], the results for the pIC50 on CDK12/CyclinK and against CDK2 were 7.57 and 8.15, respectively.

As to `O=C(NCCc1ncc[nH]1)c1ccc(-c2nc3ccc4[nH]ncc4c3c3c2CCCC3)cc1` [Compound 15, N-(2-(1H-imidazol-2-yl)ethyl)-4-(8,9,10,11-tetrahydro-3H-pyrazolo[4,3-a]phenanthridin-7-yl)benzamide], the results for the inhibition at 0.05 µM with Molm-14 cells (FLT3-ITD), on FLT3 and at haspin were 73%, 71% and 78%, respectively.

`O=C(NCc1ncc[nH]1)c1ccc(-c2nc3ccc4[nH]ncc4c3c3c2CCCC3)cc1` [Compound 6, N-((1HI-imidazol-2-yl)methyl)-4-(8,9,10,11-tetrahydro-3H-pyrazolo[4,3-a]phenanthridin-7-yl)benzamide]: the values for the inhibition at 0.05 µM in the test on Molm-14 cells (FLT3-ITD), on FLT3 and at haspin were 84%, 76% and 77%, respectively.

`O=C(NCc1ncc[nH]1)c1ccc(-c2nc3ccc4[nH]ncc4c3c3c2CCCC3)c(F)c1` [Compound 9, N-((1H-imidazol-2-yl)methyl)-3-fluoro-4-(8,9,10,11-tetrahydro-3H-pyrazolo[4,3-a]phenanthridin-7-yl)benzamide]: the inhibition at 0.05 µM was 87% with Molm-14 cells (FLT3-ITD), 88% on FLT3 and 53% at haspin.

Consider `CN(C)C/C=C/C(=O)Nc1ccc(C(=O)N2CCC[C@@H](Nc3ncc(Cl)c(-c4c[nH]c5ccccc45)n3)C2)cc1` [THZ531, reference compound], for which the pIC50 on CDK12/CyclinK was 7.22.

As to `O=C(NCCn1ccnc1)c1ccc(-c2nc3ccc4[nH]ncc4c3c3c2CCCC3)cc1` [Compound 5, N-(2-(1H-imidazol-1-yl)ethyl)-4-(8,9,10,11-tetrahydro-3H-pyrazolo[4,3-a]phenanthridin-7-yl)benzamide], the inhibition at 0.05 µM with Molm-14 cells (FLT3-ITD) was determined as 42%; at FLT3, 31%; on haspin, 33%.

`O=C(NCc1nccs1)c1ccc(-c2nc3ccc4[nH]ncc4c3c3c2CCCC3)cc1` [Compound 13, 4-(8,9,10,11-tetrahydro-3HI-pyrazolo[4,3-a]phenanthridin-7-yl)-N-(thiazol-2-ylmethyl)benzamide]: the inhibition at 0.05 µM turned out to be 55% with Molm-14 cells (FLT3-ITD), 53% on FLT3 and 68% at haspin.

For `O=C(NCc1nnn[nH]1)c1ccc(-c2nc3ccc4[nH]ncc4c3c3c2CCCC3)cc1` [Compound 10, N-((1H-tetrazol-5-yl)methyl)-4-(8,9,10,11-tetrahydro-3H-pyrazolo[4,3-a]phenanthridin-7-yl)benzamide], the inhibition at 0.05 µM in the test with Molm-14 cells (FLT3-ITD) was found to be 50%; at FLT3, 51%; at haspin it was 57%.

The molecule `NC(=O)c1ccc(-c2nc3ccc4[nH]ncc4c3c3c2CCCC3)cc1` [HSD1217, reference compound] gave a negative-log IC50 (pIC50) against CDK2 of 6.73.

For `O=C(NCc1ncc[nH]1)c1ccc(-c2nc3ccc4[nH]ncc4c3c3c2CCCC3)cc1F` [Compound 11, N-((1H-imidazol-2-yl)methyl)-2-fluoro-4-(8,9,10,11-tetrahydro-3H-pyrazolo[4,3-a]phenanthridin-7-yl)benzamide], the inhibition at 0.05 µM with Molm-14 cells (FLT3-ITD) was found to be 80%; on FLT3 it was 85%; on haspin it was 76%.

As to `O=C(NCc1cc[nH]c1)c1ccc(-c2nc3ccc4[nH]ncc4c3c3c2CCCC3)cc1` [Compound 12, N-((1H-pyrrol-3-yl)methyl)-4-(8,9,10,11-tetrahydro-3H-pyrazolo[4,3-a]phenanthridin-7-yl)benzamide], the inhibition at 0.05 µM in the test on Molm-14 cells (FLT3-ITD) is 39%; at FLT3 it was 46%; at haspin, 41%.

Take `O=C(NCc1c[nH]cn1)c1ccc(-c2nc3ccc4[nH]ncc4c3c3c2CCCC3)cc1` [Compound 4, N-((1H-imidazol-4-yl)methyl)-4-(8,9,10,11-tetrahydro-3H-pyrazolo[4,3-a]phenanthridin-7-yl)benzamide]: the inhibition at 0.05 µM with Molm-14 cells (FLT3-ITD) came to 67%; on FLT3, 49%; at haspin, 54%.

Turning to `Cn1ccnc1CNC(=O)c1ccc(-c2nc3ccc4[nH]ncc4c3c3c2CCCC3)cc1` [Compound 7, N-((1-methyl-1H-imidazol-2-yl)methyl)-4-(8,9,10,11-tetrahydro-3H-pyrazolo[4,3-a]phenanthridin-7-yl)benzamide], the inhibition at 0.05 µM is 21% in the test with Molm-14 cells (FLT3-ITD), 14% at FLT3 and 26% at haspin.

Turning to `FC(F)(F)c1n[nH]cc1-c1nc2ccc3[nH]ncc3c2c2c1CCCC2` [HSD1169, reference compound], the results for the inhibition at 0.05 µM in the test with Molm-14 cells (FLT3-ITD), at FLT3 and on haspin were 90%, 81% and 39%, respectively.

The inhibition is the relative decrease from the control value, in per cent. The pIC50 is the negative decadic logarithm of the IC50, by convention in mol/L. Low values mean a high IC50, high ones a low IC50.

Values taken from US20250320203A1, “4-(3H-PYRAZOLO[4,3-F]QUINOLIN-7-YL)-N-(2-(DIMETHYLAMINO)ETHYL)BENZAMIDE- OR HYDROXAMIC ACID COMPOUNDS, COMPOSITIONS, AND METHODS OF USE” (Purdue Research Foundation, priority 2022, published 2025).
